This note sets out measurements from patent US7435742B2, “Quinuclidine derivatives and pharmaceutical compositions containing the same” (Laboratorios Almirall S.A., priority 2002, dated 2008).

In the case of `O=C(O[C@H]1C[N+]2(CCOc3ccccc3)CCC1CC2)N(CC1CCCCC1)c1ccccc1F.[Br-]`, the melting point lay within 73.1 to 74.5 °C. In turn, `Cc1cccc(N(Cc2cc(F)c(F)cc2F)C(=O)O[C@H]2C[N+]3(CCOc4ccccc4)CCC2CC3)c1.[Br-]` displayed a melting point of 137.3 to 139.1 °C.

Turning to `O=C(O[C@H]1C[N+]2(CCCc3ccccc3)CCC1CC2)N(CC1CCCCC1)c1ccccc1F.[Br-]`, the melting point fell in the range of 73.3 to 74.1 °C.

`O=C(O[C@H]1C[N+]2(CCCc3cccs3)CCC1CC2)N(Cc1cccs1)Cc1cccs1.[Br-]`: the melting point came out at 143 °C.

In the case of `O=C(O[C@H]1C[N+]2(CCOc3ccccc3)CCC1CC2)N(Cc1cc(F)c(F)c(F)c1)c1cccc(F)c1.[Br-]`, the melting point fell in the range of 173.9 to 175.5 °C. Compound `O=C(O[C@H]1C[N+]2(CCCc3cccs3)CCC1CC2)N(Cc1ccccc1)c1ccccc1.[Br-]` came in with a melting point of 95 °C. The compound `O=C(O[C@H]1C[N+]2(CCOc3ccccc3)CCC1CC2)N(Cc1ccccc1)c1ccccc1.[Br-]` displayed a melting point of 117 °C. `O=C(O[C@H]1C[N+]2(CCOc3ccccc3)CCC1CC2)N(Cc1cccs1)c1ccccc1.[Br-]`: the melting point is 133 °C. Regarding `C[N+]12CCC(CC1)[C@@H](OC(=O)N(CCc1ccccc1)c1ccccc1)C2.[Br-]`, the melting point was determined as 203 °C. On to `C=CC[N+]12CCC(CC1)[C@@H](OC(=O)N(Cc1cccs1)c1ccccc1)C2.[Br-]`, for which the melting point turned out to be 110 °C.

`CCCCN(C(=O)O[C@H]1C[N+]2(CCCc3cccs3)CCC1CC2)c1ccccc1.[Br-]`: the melting point was 127 °C.

In turn, `CCCCN(C(=O)O[C@H]1C[N+]2(CCCOc3ccc(F)cc3)CCC1CC2)c1ccccc1.[Cl-]` came in with a melting point of 126 °C.

As usually defined, the melting point is the temperature of the solid-liquid transition.
